According to PubChem BioAssay AID1259407 (Chemical Carcinogenesis Research Information System (CCRIS), 2018):
The source made the active and inactive calls. No rule for the calls is given here.

System: CCRIS mutagenicity, Ames/micronucleus/aberration tests
Test: CCRIS mutagenicity studies
[1] = Test System: AMES SALMONELLA TYPHIMURIUM, Strain/Indicator: TA98, Metabolic Activation: NONE, Method: STANDARD PLATE
[2] = Test System: AMES SALMONELLA TYPHIMURIUM, Strain/Indicator: TA100, Metabolic Activation: NONE, Method: STANDARD PLATE
[3] = Test System: AMES SALMONELLA TYPHIMURIUM, Strain/Indicator: TA100, Metabolic Activation: RAT, LIVER, S-9, AROCLOR 1254, Method: STANDARD PLATE
[4] = Test System: AMES SALMONELLA TYPHIMURIUM, Strain/Indicator: TA98, Metabolic Activation: RAT, LIVER, S-9, AROCLOR 1254, Method: STANDARD PLATE

Measured: mutagenic call

O=Cc1ccco1
active: [3] active; positive | Test System: MOUSE LYMPHOMA, Strain/Indicator: L5178Y (TK+/TK-), Metabolic Activation: NONE, Method: SUSPENSION/PLATE active; positive
inactive: Test System: AMES SALMONELLA TYPHIMURIUM, Strain/Indicator: TA97, Metabolic Activation: NONE, Method: PREINCUBATION inactive; negative | Test System: AMES SALMONELLA TYPHIMURIUM, Strain/Indicator: TA97, Metabolic Activation: RAT, LIVER, S-9, AROCLOR 1254, Method: PREINCUBATION inactive; negative | Test System: AMES SALMONELLA TYPHIMURIUM, Strain/Indicator: TA98, Metabolic Activation: HAMSTER, LIVER, S-9, AROCLOR 1254 (10%), Method: PREINCUBATION inactive; negative | Test System: AMES SALMONELLA TYPHIMURIUM, Strain/Indicator: TA98, Metabolic Activation: HAMSTER, LIVER, S-9, AROCLOR 1254, Method: PREINCUBATION inactive; negative | [1] inactive; negative | Test System: AMES SALMONELLA TYPHIMURIUM, Strain/Indicator: TA98, Metabolic Activation: RAT LIVER S-9, PHENOBARBITAL AND BETA-NAPHTHOFLAVONE, Method: PREINCUBATION inactive; negative | Test System: AMES SALMONELLA TYPHIMURIUM, Strain/Indicator: TA98, Metabolic Activation: RAT, LIVER, S-9, AROCLOR 1254 (10%), Method: PREINCUBATION inactive; negative | Test System: AMES SALMONELLA TYPHIMURIUM, Strain/Indicator: TA98, Metabolic Activation: RAT, LIVER, S-9, AROCLOR 1254, Method: PREINCUBATION inactive; negative | Test System: AMES SALMONELLA TYPHIMURIUM, Strain/Indicator: TA98, Metabolic Activation: S-9, Method: STANDARD PLATE inactive; negative | Test System: AMES SALMONELLA TYPHIMURIUM, Strain/Indicator: TA100, Metabolic Activation: HAMSTER, LIVER, S-9, AROCLOR 1254 (10%), Method: PREINCUBATION inactive; negative | Test System: AMES SALMONELLA TYPHIMURIUM, Strain/Indicator: TA100, Metabolic Activation: HAMSTER, LIVER, S-9, AROCLOR 1254, Method: PREINCUBATION inactive; negative | [2] inactive; negative | Test System: AMES SALMONELLA TYPHIMURIUM, Strain/Indicator: TA100, Metabolic Activation: RAT LIVER S-9, AROCLOR 1254, Method: PREINCUBATION inactive; negative | Test System: AMES SALMONELLA TYPHIMURIUM, Strain/Indicator: TA100, Metabolic Activation: RAT LIVER S-9, PHENOBARBITAL AND BETA-NAPHTHOFLAVONE, Method: PREINCUBATION inactive; negative | Test System: AMES SALMONELLA TYPHIMURIUM, Strain/Indicator: TA100, Metabolic Activation: RAT, LIVER, S-9, AROCLOR 1254 (10%), Method: PREINCUBATION inactive; negative | Test System: AMES SALMONELLA TYPHIMURIUM, Strain/Indicator: TA100, Metabolic Activation: RAT, LIVER, S-9, AROCLOR 1254, Method: PREINCUBATION inactive; negative | Test System: AMES SALMONELLA TYPHIMURIUM, Strain/Indicator: TA102, Metabolic Activation: MOUSE LIVER S-9, AROCLOR 1254, Method: PREINCUBATION inactive; negative | Test System: AMES SALMONELLA TYPHIMURIUM, Strain/Indicator: TA102, Metabolic Activation: NONE, Method: PREINCUBATION inactive; negative | Test System: AMES SALMONELLA TYPHIMURIUM, Strain/Indicator: TA102, Metabolic Activation: RAT, LIVER, S-9, AROCLOR 1254, Method: PREINCUBATION inactive; negative | Test System: AMES SALMONELLA TYPHIMURIUM, Strain/Indicator: TA104, Metabolic Activation: MOUSE LIVER S-9, AROCLOR 1254, Method: PREINCUBATION inactive; negative | Test System: AMES SALMONELLA TYPHIMURIUM, Strain/Indicator: TA1535, Metabolic Activation: HAMSTER, LIVER, S-9, AROCLOR 1254 (10%), Method: PREINCUBATION inactive; negative | Test System: AMES SALMONELLA TYPHIMURIUM, Strain/Indicator: TA1535, Metabolic Activation: HAMSTER, LIVER, S-9, AROCLOR 1254, Method: PREINCUBATION inactive; negative | Test System: AMES SALMONELLA TYPHIMURIUM, Strain/Indicator: TA1535, Metabolic Activation: NONE, Method: PREINCUBATION inactive; negative | Test System: AMES SALMONELLA TYPHIMURIUM, Strain/Indicator: TA1535, Metabolic Activation: RAT LIVER S-9, PHENOBARBITAL AND BETA-NAPHTHOFLAVONE, Method: PREINCUBATION inactive; negative | Test System: AMES SALMONELLA TYPHIMURIUM, Strain/Indicator: TA1535, Metabolic Activation: RAT, LIVER, S-9, AROCLOR 1254 (10%), Method: PREINCUBATION inactive; negative | Test System: AMES SALMONELLA TYPHIMURIUM, Strain/Indicator: TA1535, Metabolic Activation: RAT, LIVER, S-9, AROCLOR 1254, Method: PREINCUBATION inactive; negative | Test System: AMES SALMONELLA TYPHIMURIUM, Strain/Indicator: TA1537, Metabolic Activation: HAMSTER, LIVER, S-9, AROCLOR 1254 (10%), Method: PREINCUBATION inactive; negative | Test System: AMES SALMONELLA TYPHIMURIUM, Strain/Indicator: TA1537, Metabolic Activation: HAMSTER, LIVER, S-9, AROCLOR 1254, Method: PREINCUBATION inactive; negative | Test System: AMES SALMONELLA TYPHIMURIUM, Strain/Indicator: TA1537, Metabolic Activation: NONE, Method: PREINCUBATION inactive; negative | Test System: AMES SALMONELLA TYPHIMURIUM, Strain/Indicator: TA1537, Metabolic Activation: RAT LIVER S-9, PHENOBARBITAL AND BETA-NAPHTHOFLAVONE, Method: PREINCUBATION inactive; negative | Test System: AMES SALMONELLA TYPHIMURIUM, Strain/Indicator: TA1537, Metabolic Activation: RAT, LIVER, S-9, AROCLOR 1254 (10%), Method: PREINCUBATION inactive; negative | Test System: AMES SALMONELLA TYPHIMURIUM, Strain/Indicator: TA1537, Metabolic Activation: RAT, LIVER, S-9, AROCLOR 1254, Method: PREINCUBATION inactive; negative | Test System: E.COLI, Strain/Indicator: WP2UVRA, Metabolic Activation: NONE, Method: PREINCUBATION inactive; negative | Test System: E.COLI, Strain/Indicator: WP2UVRA, Metabolic Activation: RAT LIVER S-9, PHENOBARBITAL AND BETA-NAPHTHOFLAVONE, Method: PREINCUBATION inactive; negative

O=C(Cl)c1cccc(Cl)c1
inactive: Test System: AMES SALMONELLA TYPHIMURIUM, Strain/Indicator: TA98, Metabolic Activation: NONE, Method: PREINCUBATION inactive; negative | Test System: AMES SALMONELLA TYPHIMURIUM, Strain/Indicator: TA100, Metabolic Activation: NONE, Method: PREINCUBATION inactive; negative | Test System: AMES SALMONELLA TYPHIMURIUM, Strain/Indicator: TA104, Metabolic Activation: NONE, Method: PREINCUBATION inactive; negative | Test System: E.COLI, Strain/Indicator: WP2 UVRA, Metabolic Activation: NONE, Method: PREINCUBATION inactive; negative
active: Test System: AMES SALMONELLA TYPHIMURIUM, Strain/Indicator: TA98, Metabolic Activation: RAT LIVER S-9, PCB, Method: PREINCUBATION active; positive | Test System: AMES SALMONELLA TYPHIMURIUM, Strain/Indicator: TA100, Metabolic Activation: RAT LIVER S-9, PCB, Method: PREINCUBATION active; positive | Test System: AMES SALMONELLA TYPHIMURIUM, Strain/Indicator: TA104, Metabolic Activation: RAT LIVER S-9, PCB, Method: PREINCUBATION active; positive | Test System: E.COLI, Strain/Indicator: WP2 UVRA, Metabolic Activation: RAT LIVER S-9, PCB, Method: PREINCUBATION active; positive

O=[N+]([O-])c1c(O)cc2c3c(cccc13)-c1ccccc1-2
active: [1] active; positive | [4] active; positive

O=C(OCc1ccc(Cl)cc1Cl)c1cccc2cccnc12
inactive: [1] inactive; negative | [4] inactive; negative | [2] inactive; negative | [3] inactive; negative | Test System: AMES SALMONELLA TYPHIMURIUM, Strain/Indicator: TA1535, Metabolic Activation: NONE, Method: STANDARD PLATE inactive; negative | Test System: AMES SALMONELLA TYPHIMURIUM, Strain/Indicator: TA1535, Metabolic Activation: RAT, LIVER, S-9, AROCLOR 1254, Method: STANDARD PLATE inactive; negative | Test System: AMES SALMONELLA TYPHIMURIUM, Strain/Indicator: TA1537, Metabolic Activation: NONE, Method: STANDARD PLATE inactive; negative | Test System: AMES SALMONELLA TYPHIMURIUM, Strain/Indicator: TA1537, Metabolic Activation: RAT, LIVER, S-9, AROCLOR 1254, Method: STANDARD PLATE inactive; negative

Cc1ccc2nc3c(c(C)c2c1)[C@@H](O)[C@H](O)c1ccccc1-3
inactive: [3] inactive; negative
